Columns and labels:
BIP level in K562 cells = test: BIP immunoblot in mammalian cells; type: cell-based, human; conditions: 20 μM, 28 hour
Method: Immunoblot of lysates prepared from human leukemia cells (K562) using an antibody to BIP after 28 hour exposure to tunicamycin (1 μg ml^−1), gepinacin (20 μM) or solvent vehicle (DMSO, 0.1%). Betaactin was blotted as a loading control.

Candida albicans = test: Antifungal susceptibility testing, wild type and drug-resistant strains; type: cell-based
Method: Anti-fungal susceptibility testing of a fluconazole-resistant C. albicans strain under standard conditions. Yeast were incubated at 30° C. for 24 hours with serial dilutions of the indicated compounds. Growth was monitored by OD600 and is expressed as fraction of the growth observed in the absence of compound.
Archives of all strains were maintained in 25% glycerol at −80° C. Standard S. cerevisiae lab strains W303, BY4741, BY4742 and BY4743 were used for experiments. The C. albicans wild type strain in FIG. 1 was CaI4, a standard laboratory strain (Fonzi, et al. (1993) Genetics 134, 717-728). […]
Sensitivity to gepinacin was determined in 96-well, flat bottom microtiter plates using a modification of the NCCLS broth microdilution protocol CLS M27-A3 and RPMI as culture medium. Fungi were inoculated at ˜10^3 cells per ml and incubated for 48 hours at 37° C. after which plates were sealed, shaken and the optical density read at 600 nm (OD600) on a Tecan Safire 2 plate reader. […] Results are expressed as fraction of growth in the absence of compound and the mean and standard deviation are plotted. […] Plates were then visually scored as specified by CLSI document M38-A2 to determine the MIC50 and MIC80.

Gas1 and CPY maturation = test: Protein trafficking analysis (immunoblot of reporter proteins); type: cell-based, S. cerevisiae; conditions: 10 μM, 1 hour
Method: (A) Immunoblots of lysates prepared from S. cerevisiae treated with gepinacin showing GPI-anchor-selective impairment of protein maturation. The unprocessed (u), precursor (p), and mature (m) forms of the reporter proteins are indicated. The identity of the tagged reporter proteins (top of panel) and the antibodies used for their detection (bottom of panel) are also indicated. Treatment conditions are DMSO (0.05%), gepinacin (GPN, 10 μM) or tunicamycin (Tun, 10 μM). The same lysate was used for both blots. […] GFP expression was monitored by flow cytometry. (C) Anti-fungal susceptibility testing of strains deleted for IRE1 (activator of the UPR) or HAC1 (effector of the UPR) showing their increased sensitivity to gepinacin.
HA-tagged GAS1 was expressed in strain BY4741 CPY-GFP (Yeast GFP collection (Huh, et al. (2003) Nature 425, 686-691) under control of its own promoter using plasmid pCM-HA-GAS1. This construct was created as previously reported except in a gateway plasmid backbone (Fujita, et al. (2006) Mol Biol Cell 17, 834-850). To assess effects on trafficking, strains were incubated for 1 hour at 30° C. with test compounds. Total cellular protein (5 μg) was separated by electrophoresis (Invitrogen 8% gels) and transferred to nitrocellulose membranes. Blots were hybridized with antibodies against HA (Covance), GFP (Roche), or CPY (Invitrogen). Sizes for the various post-translationally modified products of Gas1HA2 and CPY have been previously reported (Fujita, et al. (2006) Mol Biol Cell 17, 834-850). CPY-GFP was used to facilitate discrimination of CPY processing steps because GFP is cleaved from CPY in the yeast vacuole. The experiment, however, was also performed with untagged CPY with the same results.

[1] = system: mammalian cells (293T, mouse embryo fibroblasts); test: Mammalian cell toxicity testing (Cell Titer-Glo); type: cell-based, human; conditions: 20 μM, 48 hours
Method: (B) Anti-fungal susceptibility testing for an evolutionarily diverse group of fungi treated with gepinacin. For A. terreus the MIC50 and MIC80 are plotted. (C) Anti-fungal susceptibility testing for wild type C. albicans and strains resistant to the three major classes of anti-fungals treated with gepinacin. (D) Mammalian cell toxicity testing for proliferating human cells in culture (293T) or quiescent cells (mouse embryo fibroblasts). Cells were treated with gepinacin (20 μM) for 48 hours after which relative viable cell number was measured by standard luciferase assay (Cell Titer-Glo®, Promega).

## COc1ccc(NC(=O)COc2cccc(OCC(C)C)c2)cc1 [gepinacin]
BIP level in K562 cells
  ER function monitored by induction of BIP: did not perturb ER function
Candida albicans
  growth inhibition: inhibited the growth
Candida albicans; fluconazole-, amphotericin B-, caspofungin-resistant strains
  growth inhibition of isolates resistant to the three major classes of antifungals: inhibited the growth of multiple isolates
Gas1 and CPY maturation
  CPY (not GPI-anchored) processing: identical
  Gas1 (GPI-anchored) maturation: mature versus precursor form: inverted
[1]
  cytotoxicity for mammalian cells: Lack of cytotoxicity

— patent US9505735B2, “Compounds for treating infectious diseases” (Whitehead Institute for Biomedical Research, priority 2012, dated 2016)
